Results: the NIST ThermoML archive (doi:10.1016/j.fluid.2008.08.001)
Numbers after ± are expanded uncertainties.

Experiments:
[1] = refractive index (Na D-line) (dimensionless); settings: 298.1 K; 101.33 kPa; Liquid; Standard Abbe refractometry
[2] = for vapor or sublimation pressure: Liquid

Row | refractive index [1] | vapor or sublimation pressure ([2]; 468.96 K) [kPa] | vapor or sublimation pressure ([2]; 473.96 K) [kPa] | vapor or sublimation pressure ([2]; 478.65 K) [kPa] | vapor or sublimation pressure ([2]; 485.91 K) [kPa] | vapor or sublimation pressure ([2]; 488.5 K) [kPa] | vapor or sublimation pressure ([2]; 490.22 K) [kPa] | vapor or sublimation pressure ([2]; 496.8 K) [kPa] | vapor or sublimation pressure ([2]; 500.18 K) [kPa] | vapor or sublimation pressure ([2]; 505.08 K) [kPa] | vapor or sublimation pressure ([2]; 510.7 K) [kPa] | vapor or sublimation pressure ([2]; 519.03 K) [kPa] | vapor or sublimation pressure ([2]; 525.3 K) [kPa] | vapor or sublimation pressure ([2]; 532.77 K) [kPa] | Normal melting temperature ([2]; Crystal, visual observation) [°C] | SMILES
1 | 1.442 ± 0.0007 | 0.666 ± 0.044 | 0.818 ± 0.05 | 1.036 ± 0.059 | 1.457 ± 0.078 | 1.515 ± 0.081 | 1.762 ± 0.093 | 2.286 ± 0.12 | 2.647 ± 0.14 | 3.149 ± 0.16 | 4.078 ± 0.21 | 5.29 ± 0.27 | 7.044 ± 0.35 | 9.161 ± 0.46 | – | CCCCOC(=O)CCCCCCCCC(=O)OCCCC [dibutyl decanedioate]
2 | – | – | – | – | – | – | – | – | – | – | – | – | – | – | 52.5 ± 0.5 | O=C1C=CC(=O)O1 [maleic anhydride]
